Laboratory results reported in US11851419B2, “GLP-1R modulating compounds” (Gilead Sciences, Inc., priority 2020, dated 2023).

How the values were obtained:
GLP-1R [1] = target: T1, GLP-1R (Homo sapiens, UniProt P43220); assay: GLP-1R Activation - cAMP Assay 1 (cAMP increase in CHO cells stably expressing GLP-1R); type: cell-based; conditions: 10 point dose response, 30 minutes incubation at 37° C., cAMP Gs Dynamic Kit
Procedure: GLP-1R Activation—cAMP Assay 1
GLP-1R activation by a compound of the present disclosure was quantified by measuring cAMP increase in CHO cells stably expressing GLP-1R (MultiSpan product #C1267-1a). The cells were harvested and plated in growth medium (DMEM/F-12 (Corning product #10-090-CV) supplemented with 10% FBS (HyClone product #SH30071-03), penicillin/streptomycin (Corning product #30-002CI) and 10 µg/ml puromycin (Gibco product #A11138-03)) at 1,000 cells/well in a 384-well plate (Greiner product #781080). The cells were then incubated overnight at 37° C., 5% CO2. The next day, the medium was removed and the cells were washed with DPBS (Corning product #21-031-CM) before adding the assay medium (HBSS, Corning product #21-023-CV) with 20 mM Hepes (Gibco product #15630-080) and 0. 1% BSA (Rockland Immunochemicals product #BSA-1000)). Following the medium change, the cells were incubated for 1 hour at 37° C., 5% CO2. The tested GLP-1 compound was added to the cells in a 10 point dose response followed by a 30 minutes incubation at 37° C., 5% CO2. cAMP concentration increase was then detected using Cisbio's cAMP Gs Dynamic Kit (product #62AM4PEC) according to the manufacturer's protocol. The response was plotted against the log of the agonist concentration and fitted to a sigmoidal equation to determine the EC50.

GLP-1R [2] = target: T1, GLP-1R; assay: GLP-1R Activation - cAMP Assay 2 (cAMP increase in CHO cells stably expressing GLP-1R, pre-spotted agonists); type: cell-based; conditions: assay buffer or 100% Human Plasma (not given), 30 minutes at 37° C.
Procedure: GLP-1R Activation—cAMP Assay 2
GLP-1R activation by small molecule agonists is quantified by measuring cAMP increase in CHO cells stably expressing GLP-1R (MultiSpan product #C1267-1a). 50 nL of agonists are pre-spotted in a 10 point dose response onto 384-well plate (Corning product #CL3826) using the Labcyte Echo System. The cells are harvested and plated in assay buffer (HBSS (Corning product #21-023-CV) with 20 mM Hepes (Gibco product #15630-080) and 0.1% BSA (Rockland Immunochemicals product #BSA-1000)) or 100% Human Plasma (Innovative Research product #50-643-396) at 1,000 cells/well, 10 µL/well, onto the pre-spotted plates. The cells are then incubated for 30 minutes at 37° C., 5% CO2. cAMP concentration increase is then detected using Cisbio's cAMP Gs Dynamic Kit (product #62AM4PEC) according to the manufacturer's protocol. The response is plotted against the log of the agonist concentration and fitted to a sigmoidal equation to determine the EC50.

T1 sequence (P43220 24-463): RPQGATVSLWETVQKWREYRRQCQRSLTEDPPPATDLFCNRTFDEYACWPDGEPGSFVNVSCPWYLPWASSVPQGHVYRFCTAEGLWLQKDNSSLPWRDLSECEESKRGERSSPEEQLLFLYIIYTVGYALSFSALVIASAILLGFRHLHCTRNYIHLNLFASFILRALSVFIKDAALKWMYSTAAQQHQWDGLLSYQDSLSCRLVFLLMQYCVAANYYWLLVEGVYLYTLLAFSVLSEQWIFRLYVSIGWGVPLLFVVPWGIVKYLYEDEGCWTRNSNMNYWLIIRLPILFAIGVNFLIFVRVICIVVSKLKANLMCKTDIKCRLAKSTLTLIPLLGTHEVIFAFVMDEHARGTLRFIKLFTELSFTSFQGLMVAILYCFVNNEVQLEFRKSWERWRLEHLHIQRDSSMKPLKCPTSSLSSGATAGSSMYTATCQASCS

| EC50 (GLP-1R [1]) [nM] | EC50 (GLP-1R [2]) [nM] | Structure (SMILES) |
| --- | --- | --- |
| 3.5 | 7.1 | COCCn1c(CN2CCC(c3cccc(OCc4ccc(C#N)cc4F)n3)CC2)nc2c(C#N)cc(C(=O)O)cc21 [Example 25, 4-cyano-2-((4-(6-((4-cyano-2-fluorobenzyl)oxy)pyridin-2-yl)piperidin-1-yl)methyl)-1-(2-methoxyethyl)-1H-benzo[d]imidazole-6-carboxylic Acid] |
| 53.9 | 47.8 | COCCn1c(CN2CCC(c3cccc(OCc4ccc(C#N)cc4F)n3)CC2)nc2c(C3CC3)cc(C(=O)O)cc21 [Example 26, 2-((4-(6-((4-cyano-2-fluorobenzyl)oxy)pyridin-2-yl)piperidin-1-yl)methyl)-4-cyclopropyl-1-(2-methoxyethyl)-1H-benzo[d]imidazole-6-carboxylic Acid] |
| 18.2 | 11.3 | COCCn1c(CN2CCC(c3cccc(OCc4ccc(C#N)cc4F)n3)CC2)nc2c(F)c(F)c(C(=O)O)cc21 [Example 10, 2-((4-(6-((4-cyano-2-fluorobenzyl)oxy)pyridin-2-yl)piperidin-1-yl)methyl)-4,5-difluoro-1-(2-methoxyethyl)-1H-benzo[d]imidazole-6-carboxylic Acid] |
| 5.3 | 13.2 | COCCn1c(CC2CCN(c3cccc(OCc4ccc(C#N)cc4F)n3)CC2)nc2c(F)cc(C(=O)O)cc21 [Example 8] |
| 14.6 | – | COCCn1c(CN2CCC(c3cccc(OCc4ccc(C#N)cc4F)n3)CC2)nc2c(COC)cc(C(=O)O)cc21 [Example 27, 2-((4-(6-((4-cyano-2-fluorobenzyl)oxy)pyridin-2-yl)piperidin-1-yl)methyl)-1-(2-methoxyethyl)-4-(methoxymethyl)-1H-benzo[d]imidazole-6-carboxylic Acid] |
| 21 | – | COCCn1c(CN2CCC(c3cccc(OCc4ccc(C#N)cc4F)n3)CC2)nc2c(C)cc(C(=O)O)cc21 [Example 28, 2-((4-(6-((4-cyano-2-fluorobenzyl)oxy)pyridin-2-yl)piperidin-1-yl)methyl)-1-(2-methoxyethyl)-4-methyl-1H-benzo[d]imidazole-6-carboxylic Acid] |
| 1.04 | – | COCCn1c(CN2CCC(c3cccc(OCc4ccc(C#N)cc4F)n3)CC2)nc2c(F)cc(C(=O)O)cc21 [Example 14, 2-[[4-[6-[(4-cyano-2-fluoro-phenyl)methoxy]-2-pyridyl]-1-piperidyl]methyl]-7-fluoro-3-(2-methoxyethyl)benzimidazole-5-carboxylic Acid] |
| 3.8 | 10.3 | COCCn1c(C2CC23CCN(c2cccc(OCc4ccc(C#N)cc4F)n2)CC3)nc2c(F)cc(C(=O)O)cc21 (stereo not shown) [Example 7, 2-[6-[6-[(4-cyano-2-fluoro-phenyl)methoxy]-2-pyridyl]-6-azaspiro[2.5]octan-2-yl]-7-fluoro-3-(2-methoxyethyl)benzimidazole-5-carboxylic Acid] |
| 6.6 | 2.6 | COCCn1c(CN2CCC(c3cccc(OCc4ccc(C#N)cc4F)n3)CC2)nc2c(Cl)cc(C(=O)O)cc21 [Example 9] |
| 0.24 | – | CC(C)(C#N)Cn1c(CN2CCC(c3cccc(OCc4ccc(C#N)cc4F)n3)CC2)nc2c(F)cc(C(=O)O)cc21 [Example 15] |
